Measured values as given in patent US20170240522A1, “BENZOTHIOPHENE, BENZYLOXYBENZYLIDENE AND INDOLINE DERIVATIVES USEFUL FOR THE TREATMENT OF TUBERCULOSIS” (priority 2014, published 2017).

Columns and labels:
[1] = test system: several other mycobacteria and non-mycobacterial pathogens; assay: REMA assay of non-Mtb strains; type: cell-based
[2] = test system: EsxA; type: cell-based, Mycobacterium tuberculosis
[3] = test system: Mtb-Erdman; assay: Growth of Mtb in 7H9 broth; type: cell-based, Mycobacterium tuberculosis; details: 25 μM
[4] = test system: Mtb culture filtrate proteins; assay: Secretome analysis of culture filtrate (LC/MS-MS); type: cell-based, Mycobacterium tuberculosis; details: 5 μM
Experimental: For the secretome analysis 10 μg of protein was reconstituted in 200 μl of 4 M Urea, 10% acetonitrile and buffered with Tris-HCl pH 8.5 to a final concentration of 30 mM. Proteins were reduced in 10 mM dithioerythritol (DTE) at 37° C. for 60 min. and then alkylated in 40 mM iodoacetamide at 37° C. for 45 min. Reactions were quenched by addition of DTE to a final concentration of 10 mM. First, protein digestion was performed using Lys-C (1:50 enzyme:protein) for 2 hours at 37° C. The lysates were then diluted 5-fold and a second digestion was performed overnight at 37° C. using mass spectrometry grade trypsin gold (1:50 enzyme:protein) and 10 mM CaCl2. Reactions were stopped by addition of 8 μl of pure formic acid and peptides were concentrated by vacuum centrifugation to a final volume of 70 μl.
• After digestions, samples were dimethyl-labeled as described previously (Boersema et al., 2009). […]
• Each SAX fraction was resuspended in 2% acetonitrile, 0.1% FA and loaded on a capillary pre-column (Magic AQ C18; 3 μm by 200 Å; 2 cm×100 μm ID). […] Relative quantification within different conditions was obtained calculating the significance B values for each of the identified proteins using Perseus (Cox et al., 2009).

Structure (SMILES): CSC(=S)N/N=C(\C)c1ccc(OCc2ccc(F)cc2F)cc1 [BBH7, N′-{1-[4-(2,4-Difluoro-benzyloxy)-phenyl]ethylidene}-hydrazinecarbodithioic acid methyl ester]
- MIC99 [1]: > 100 µM
- EsxA secretion [2]: dose-dependent secretion inhibition
- growth inhibition of Mtb [3]: no growth inhibition
- reduction of total culture filtrate protein [4]: 50%
- abundance of ESX-5 substrates (EsxN/EsxM, PE25, PPE41) in culture filtrate ([4]; LC-MS/MS): significantly reduced in abundance
